Tests used:
acute wounds = assay: Acute wound healing, full-thickness punch biopsy wound model in immunocompetent mice; type: in vivo, BALB/c mice
Excerpt: (§1) The histamine composition was applied topically on 5-millimeter mid-dorsal full thickness wounds and covered with either Tegaderm™ (transparent film dressing) or a silk dressing and irradiated with 800 nm near infrared laser (NIR) light.
(§2) Post-wounding, the mice were recovered for 7-11 days and their healing kinetics were monitored for different treatment groups.
(§3) An example protocol is as follows. Full-thickness punch biopsy dorsal wounds were created on mice, bioactive wound dressing applied, and the wounds were splinted to prevent wound closure by contraction. Either immunomodulator molecule was delivered on the day of wounding or a later time-point to accelerate wound healing.
FIG. 1 includes images of a wound closure procedure, which was performed with BALB/c mice (about 8-10 weeks old), with a wound size of about 5 mm (n=10), and with a histamine concentration of 3.4 mg/kg per mouse.
Additionally, Elastin-Like Polypeptide (ELP) was used alone as a control. We tested whether ELP in itself influenced healing efficacy. These studies were performed in BALB/c mice (acute wounds), 5 mm wounds, ELP concentration 2 μM (per wound/mouse). Histamine and GFNPs concentration were 3.4 mg/kg and 2 μM, respectively. Histamine and GFNPs concentration were same as previous reported studies. The GFNPs used in this study is SDF1-ELP.
A histamine double dosage control (e.g., two sequential dosage of histamine) was investigated. […] These studies were performed in BALB/c mice (acute wounds) and in 5 mm wounds. Histamine and GFNPs concentration were 3.4 mg/kg and 2 μM, respectively. Histamine and GFNPs concentration were same as previous reported studies. The GFNPs used in this study is SDF1-ELP. We delivered histamine in the following manner: Histamine along with silk fibroin dressing on Day 0 post wounding (like previous studies); Histamine delivered on Day 3 post wounding. Wounds were treated with PBS and silk fibroin film alone on Day 0; Histamine along with silk fibroin on Day 0 post wounding+ second dose of histamine on Day 3 post wounding delivered using subcutaneous injection; and Histamine along with silk fibroin on Day 0 post wounding+ GFNPs delivered sequentially on Day 3 post wounding.

[1] = test system: acute and slow healing diabetic wounds; assay: Full-thickness punch biopsy wound model, statements covering acute and diabetic wounds together; type: in vivo, mice; conditions: histamine applied topically on 5 mm full thickness wounds, covered with Tegaderm or silk dressing, 800 nm NIR laser
Excerpt: as §1, §2, §3

For NCCc1c[nH]cn1 [histamine], the contractile activity (acute wounds; acute wound model) was “higher contractile activity”, the neovascularization (acute wounds; acute wound model) was “higher neovascularization” and the re-epithelialization (acute wounds; acute wound model) was “higher re-epithelialization”. For the same compound, the “reduction of the dermal gap of a wound” value (acute wounds; acute wound model) was “improves reduction of the dermal gap”, the resolution of inflammation (acute wounds; acute wound model) was “better solution of inflammation” and the “tissue strength / ultimate tensile strength (UTS) of healed skin” value (acute wounds; acute wounds, day 7, compared between dressings with histamine or saline) was “higher skin strength recovery”. The tissue biomechanical recovery [1] was “improved tissue biomechanical recovery” and the wound area [1] was “Significant reduction in wound area”.

Source: patent publication US12251478B2 (Arizona Board of Regents on behalf of Arizona State …, priority 2019, dated 2025)
